Measurements taken from patent US12172983B2, “EGFR inhibitors” (Blueprint Medicines Corporation, priority 2019, dated 2024).

Key:
EGFR (L858R T790M C797S) = biological target: T1, EGFR (L858R T790M C797S) (Homo sapiens, UniProt P00533, C797S/L858R/T790M); assay: Biochemical EGFR inhibition assay (Caliper mobility shift), EGFR LRTMCS mutant; details: inhibitory activity against EGFR LRTMCS mutant; apparent IC50; read-out: Ext Enz LRTMCS
T1 construct: purchased SignalChem E10-122VG
How it was run: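 Kinase reactions proceed at 25° C. to 10%–20% conversion of total peptide, are terminated with 35 mM EDTA, and the phosphopeptide is resolved from substrate by electrophoretic mobility shift. Apparent IC50 values come from plotting percent activity against log compound concentration.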

[1] = tested on: phosphorylation of EGFR (Tyr1068) in NCI-H1975 cell line that harbors the EGFR L858R T790M mutations; assay: NCI-H1975 pEGFR AlphaLISA assay; assay type: cell-based; details: Homo sapiens, NCI-H1975, inhibition of phosphorylation of mutant EGFR in NCI-H1975 cells; 4-5 hours incubation; read-out: Ext pEGFR H1975
How it was run: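 Phospho-EGFR Tyr1068 AlphaLISA readout: lysates taken from compound-treated H1975 cells (L858R T790M EGFR) after a 4-5 h exposure at 37 °C. Cells had adhered overnight beforehand. IC50 derived by plotting % pEGFR inhibition against log compound concentration.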

T1 sequence (P00533 25-1210 T790M/C797S/L858R): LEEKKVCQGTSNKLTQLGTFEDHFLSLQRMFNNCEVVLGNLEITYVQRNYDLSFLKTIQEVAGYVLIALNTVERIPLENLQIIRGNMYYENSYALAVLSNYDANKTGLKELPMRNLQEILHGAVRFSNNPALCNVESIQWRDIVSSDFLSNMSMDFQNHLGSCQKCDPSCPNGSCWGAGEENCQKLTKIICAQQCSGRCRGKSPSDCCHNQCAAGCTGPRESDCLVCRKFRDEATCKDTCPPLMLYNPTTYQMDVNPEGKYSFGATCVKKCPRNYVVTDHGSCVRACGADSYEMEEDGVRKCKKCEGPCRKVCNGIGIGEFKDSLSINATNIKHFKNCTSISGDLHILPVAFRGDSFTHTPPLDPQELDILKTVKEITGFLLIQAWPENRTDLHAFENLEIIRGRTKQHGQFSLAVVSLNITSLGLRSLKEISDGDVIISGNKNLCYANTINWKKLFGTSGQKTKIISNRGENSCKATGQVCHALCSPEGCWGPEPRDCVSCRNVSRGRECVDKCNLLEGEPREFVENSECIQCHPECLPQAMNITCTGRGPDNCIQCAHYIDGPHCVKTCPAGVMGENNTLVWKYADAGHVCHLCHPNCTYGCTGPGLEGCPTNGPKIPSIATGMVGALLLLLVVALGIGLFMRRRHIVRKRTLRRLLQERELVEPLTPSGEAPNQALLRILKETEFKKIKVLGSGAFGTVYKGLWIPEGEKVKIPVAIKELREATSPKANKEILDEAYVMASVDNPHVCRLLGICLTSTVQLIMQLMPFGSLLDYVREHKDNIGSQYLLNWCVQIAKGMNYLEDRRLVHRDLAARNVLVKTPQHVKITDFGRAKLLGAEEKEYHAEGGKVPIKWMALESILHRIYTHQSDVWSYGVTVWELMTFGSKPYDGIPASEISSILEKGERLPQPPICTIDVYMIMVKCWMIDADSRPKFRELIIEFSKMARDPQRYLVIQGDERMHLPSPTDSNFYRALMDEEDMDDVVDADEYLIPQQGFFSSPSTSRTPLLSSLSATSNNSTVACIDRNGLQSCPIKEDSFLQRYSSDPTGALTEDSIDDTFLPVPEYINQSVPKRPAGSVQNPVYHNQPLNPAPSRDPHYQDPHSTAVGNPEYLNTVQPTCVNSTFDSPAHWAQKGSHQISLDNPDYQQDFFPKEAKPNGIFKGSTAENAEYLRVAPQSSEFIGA

SMILES | IC50 (EGFR (L858R T790M C797S)) | IC50 [1]
CO[C@@H]1CCN(c2nccc(Nc3cc4c(C(C)C)ccc(N5CC(CS(C)(=O)=O)C5)c4cn3)n2)C[C@@H]1O (single isomer, unassigned) [Compound 52, (3S,4R)-1-(4-(5-isopropyl-8-(3-(methylsulfonylmethyl)azetidin-1-yl)isoquinolin-3-ylamino)pyrimidin-2-yl)-4-methoxypiperidin-3-ol or (3R,4S)-1-(4-(5-isopropyl-8-(3-(methylsulfonylmethyl)azetidin-1-yl)isoquinolin-3-ylamino)pyrimidin-2-yl)-4-methoxypiperidin-3-ol] | ≤ 15 nM | ≤ 10 nM
CO[C@@H]1CCN(c2nccc(Nc3cc4c(C(C)C)ccc(N5CC([C@H](CN)S(C)(=O)=O)C5)c4cn3)n2)C[C@@H]1F (single isomer, unassigned) [Compound 193, 8-{3-[(1R)-2-amino-1-methanesulfonylethyl]azetidin-1-yl}-N-{2-[(3S,4R)-3-fluoro-4-methoxypiperidin-1-yl]pyrimidin-4-yl}-5-(propan-2-yl)isoquinolin-3-amine or 8-{3-[(1S)-2-amino-1-methanesulfonylethyl]azetidin-1-yl}-N-{2-[(3S,4R)-3-fluoro-4-methoxypiperidin-1-yl]pyrimidin-4-yl}-5-(propan-2-yl)isoquinolin-3-amine] | ≤ 15 nM | ≤ 10 nM
COC1CCN(c2nccc(Nc3cc4c(C(C)C)cnc(N5C[C@H](CS(C)(=O)=O)[C@H]5C)c4cn3)n2)CC1 [Compound 50, 8-[(2R,3S)-3-(methanesulfonylmethyl)-2-methylazetidin-1-yl]-N-[2-(4-methoxypiperidin-1-yl)pyrimidin-4-yl]-5-(propan-2-yl)-2,7-naphthyridin-3-amine] | ≤ 15 nM | ≤ 10 nM
CC(C)c1ccc(N2CC(CS(C)(=O)=O)C2)c2cnc(Nc3ccnc(N4CC[C@H](O)[C@@H](C)C4)n3)cc12 (single isomer, unassigned) [Compound 18, (3S,4S)-1-[4-({8-[3-(methanesulfonylmethyl)azetidin-1-yl]-5-(propan-2-yl)isoquinolin-3-yl}amino)pyrimidin-2-yl]-3-methylpiperidin-4-ol or (3R,4R)-1-[4-({8-[3-(methanesulfonylmethyl)azetidin-1-yl]-5-(propan-2-yl)isoquinolin-3-yl}amino)pyrimidin-2-yl]-3-methylpiperidin-4-ol] | ≤ 15 nM | ≤ 10 nM
CC(C)c1cnc(N2CC(CS(C)(=O)=O)C2)c2cnc(Nc3ccnc(N4CCN(C)CC4)n3)cc12 [Compound 3, 8-[3-(methanesulfonylmethyl)azetidin-1-yl]-N-[2-(4-methylpiperazin-1-yl)pyrimidin-4-yl]-5-(propan-2-yl)-2,7-naphthyridin-3-amine] | 20.1 to 30 nM | 30.1 to 50 nM
C[C@H](CO)c1ccc(N2C[C@H](CS(C)(=O)=O)[C@H]2C)c2cnc(Nc3ccnc(N4CC[C@](C)(O)[C@H](F)C4)n3)cc12 (single isomer, unassigned) [Compound 197, (3R,4S)-3-fluoro-1-[4-({5-[(2S)-1-hydroxypropan-2-yl]-8-[(2R,3S)-3-(methanesulfonylmethyl)-2-methylazetidin-1-yl]isoquinolin-3-yl}amino)pyrimidin-2-yl]-4-methylpiperidin-4-ol or (3R,4S)-3-fluoro-1-[4-({5-[(2R)-1-hydroxypropan-2-yl]-8-[(2R,3S)-3-(methanesulfonylmethyl)-2-methylazetidin-1-yl]isoquinolin-3-yl}amino)pyrimidin-2-yl]-4-methylpiperidin-4-ol] | ≤ 15 nM | 30.1 to 50 nM
CCS(=O)(=O)CC1CN(c2ccc(C(C)C)c3cc(Nc4ccnc(N5CC[C@@H](OC)[C@@H](O)C5)n4)ncc23)C1 (single isomer, unassigned) [Compound 91, (3S,4R)-1-{4-[(8-{3-[(ethanesulfonyl)methyl]azetidin-1-yl}-5-(propan-2-yl)isoquinolin-3-yl)amino]pyrimidin-2-yl}-4-methoxypiperidin-3-ol or (3R,4S)-1-{4-[(8-{3-[(ethanesulfonyl)methyl]azetidin-1-yl}-5-(propan-2-yl)isoquinolin-3-yl)amino]pyrimidin-2-yl}-4-methoxypiperidin-3-ol] | ≤ 15 nM | ≤ 10 nM
CO[C@H]1CCN(c2nccc(Nc3cc4c(C(C)C)ncc(N5CC(CS(C)(=O)=O)C5)c4cn3)n2)C[C@H]1F [Compound 73, N-{2-[(3R,4S)-3-fluoro-4-methoxypiperidin-1-yl]pyrimidin-4-yl}-8-[3-(methanesulfonylmethyl)azetidin-1-yl]-5-(propan-2-yl)-2,6-naphthyridin-3-amine] | ≤ 15 nM | ≤ 10 nM

The remaining lines, values ahead:

IC50 (EGFR (L858R T790M C797S)) | IC50 [1] | SMILES
≤ 15 nM | ≤ 10 nM | CC(C)c1ccc(N2C[C@H](CS(C)(=O)=O)[C@H]2C)c2cnc(Nc3ccnc(N4C[C@@H](F)[C@@H](O)[C@](C)(F)C4)n3)cc12 (single isomer, unassigned) [Compound 212, (3R,4R,5R)-3,5-difluoro-1-[4-({8-[(2R,3S)-3-(methanesulfonylmethyl)-2-methylazetidin-1-yl]-5-(propan-2-yl)isoquinolin-3-yl}amino)pyrimidin-2-yl]-3-methylpiperidin-4-ol or (3S,4S,5S)-3,5-difluoro-1-[4-({8-[(2R,3S)-3-(methanesulfonylmethyl)-2-methylazetidin-1-yl]-5-(propan-2-yl)isoquinolin-3-yl}amino)pyrimidin-2-yl]-3-methylpiperidin-4-ol]
20.1 to 30 nM | 10.1 to 20 nM | CO[C@@H]1[C@H](F)CN(c2nccc(Nc3cc4c(C(C)C)ccc(N5C[C@H](CS(C)(=O)=O)[C@H]5C)c4cn3)n2)C[C@@H]1O (single isomer, unassigned) [Compound 202, (3S,4S,5R)-5-fluoro-1-[4-({8-[(2R,3S)-3-(methanesulfonylmethyl)-2-methylazetidin-1-yl]-5-(propan-2-yl)isoquinolin-3-yl}amino)pyrimidin-2-yl]-4-methoxypiperidin-3-ol or (3R,4R,5S)-5-fluoro-1-[4-({8-[(2R,3S)-3-(methanesulfonylmethyl)-2-methylazetidin-1-yl]-5-(propan-2-yl)isoquinolin-3-yl}amino)pyrimidin-2-yl]-4-methoxypiperidin-3-ol]
≤ 15 nM | ≤ 10 nM | CO[C@@H]1[C@H](O)CN(c2nccc(Nc3cc4c(C(C)C)ncc(N5C[C@H](CS(C)(=O)=O)[C@H]5C)c4cn3)n2)CC1(F)F (single isomer, unassigned) [Compound 233, (3R,4R)-5,5-difluoro-1-[4-({8-[(2R,3S)-3-(methanesulfonylmethyl)-2-methylazetidin-1-yl]-5-(propan-2-yl)-2,6-naphthyridin-3-yl}amino)pyrimidin-2-yl]-4-methoxypiperidin-3-ol or (3S,4S)-5,5-difluoro-1-[4-({8-[(2R,3S)-3-(methanesulfonylmethyl)-2-methylazetidin-1-yl]-5-(propan-2-yl)-2,6-naphthyridin-3-yl}amino)pyrimidin-2-yl]-4-methoxypiperidin-3-ol]
≤ 15 nM | ≤ 10 nM | CCS(=O)(=O)C[C@H]1CN(c2ccc(C(C)C)c3cc(Nc4ccnc(N5CC[C@@H](OCCO)[C@@H](F)C5)n4)ncc23)[C@@H]1C [Compound 244, 2-((3S,4R)-1-(4-(8-((2R,3S)-3-(ethylsulfonylmethyl)-2-methylazetidin-1-yl)-5-isopropylisoquinolin-3-ylamino)pyrimidin-2-yl)-3-fluoropiperidin-4-yloxy)ethanol]
